{"source": "ChEMBL document CHEMBL3992481", "about": "(2016)", "key": {"[1]": {"target": "T1, Putative acetyl-hydrolase LipR (Mycobacterium tuberculosis (strain ATCC 25618 / H37Rv)) (UniProt P9WK85)", "T1 sequence (whole entry)": "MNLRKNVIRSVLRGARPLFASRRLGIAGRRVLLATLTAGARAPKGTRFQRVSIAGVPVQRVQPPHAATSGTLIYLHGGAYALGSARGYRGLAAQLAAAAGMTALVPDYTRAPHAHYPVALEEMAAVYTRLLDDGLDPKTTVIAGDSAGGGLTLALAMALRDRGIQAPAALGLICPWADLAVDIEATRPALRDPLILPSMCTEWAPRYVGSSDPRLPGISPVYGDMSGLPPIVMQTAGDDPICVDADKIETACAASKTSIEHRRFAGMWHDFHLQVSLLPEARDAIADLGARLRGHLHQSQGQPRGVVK", "assay": "Binding affinity to N-terminal His6-tagged Mycobacterium tuberculosis H37Rv ATCC 25618 lipase-R at 30 uM after 30 mins by RhN3 staining based fluorescence assay"}, "[2]": {"system": "Mycobacterium tuberculosis H37Rv", "assay": "Inhibition of lipase in Mycobacterium tuberculosis H37Rv assessed as cell growth inhibition after 7 days by resazurin assay"}, "[3]": {"system": "Mycobacterium tuberculosis", "assay": "Antitubercular activity against Mycobacterium tuberculosis H37Rv assessed as cell growth inhibition by microbroth dilution assay", "assay_type": "functional"}, "[4]": {"system": "Mycobacterium tuberculosis H37Rv", "assay": "Ratio of MIC for inhibition of lipase in Mycobacterium tuberculosis H37Rv assessed as cell growth inhibition in absence of lalistat to MIC for inhibition of lipase in Mycobacterium tuberculosis H37Rv assessed as cell growth inhibition in presence of lalistat"}, "[5]": {"system": "Mycobacterium tuberculosis", "assay": "Antitubercular activity against Mycobacterium tuberculosis H37Rv", "assay_type": "functional"}, "[6]": {"target": "T2, Carboxylic ester hydrolase (Mycobacterium tuberculosis (strain ATCC 25618 / H37Rv)) (UniProt O53488)", "T2 sequence (whole entry)": "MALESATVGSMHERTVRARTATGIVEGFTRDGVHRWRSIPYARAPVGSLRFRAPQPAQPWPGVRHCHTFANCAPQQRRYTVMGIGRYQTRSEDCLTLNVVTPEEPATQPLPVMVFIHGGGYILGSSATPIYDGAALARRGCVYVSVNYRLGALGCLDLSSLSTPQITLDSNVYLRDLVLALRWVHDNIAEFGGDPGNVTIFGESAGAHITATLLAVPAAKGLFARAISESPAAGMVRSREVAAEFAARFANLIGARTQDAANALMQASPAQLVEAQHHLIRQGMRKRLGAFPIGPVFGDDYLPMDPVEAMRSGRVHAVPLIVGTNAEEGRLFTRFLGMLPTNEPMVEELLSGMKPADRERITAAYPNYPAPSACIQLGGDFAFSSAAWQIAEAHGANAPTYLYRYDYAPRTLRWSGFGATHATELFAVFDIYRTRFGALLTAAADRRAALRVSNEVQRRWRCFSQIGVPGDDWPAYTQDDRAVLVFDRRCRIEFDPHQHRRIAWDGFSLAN", "assay": "Competitive binding affinity to Mycobacterium tuberculosis H37Rv ATCC 25618 lipase-T at 60 uM preincubated for 60 mins followed by La-1 probe addition measured after 30 mins by ABPP method"}, "[7]": {"target": "T3, Probable lipase/esterase LipG (Mycobacterium tuberculosis (strain ATCC 25618 / H37Rv)) (UniProt P96935)", "T3 sequence (whole entry)": "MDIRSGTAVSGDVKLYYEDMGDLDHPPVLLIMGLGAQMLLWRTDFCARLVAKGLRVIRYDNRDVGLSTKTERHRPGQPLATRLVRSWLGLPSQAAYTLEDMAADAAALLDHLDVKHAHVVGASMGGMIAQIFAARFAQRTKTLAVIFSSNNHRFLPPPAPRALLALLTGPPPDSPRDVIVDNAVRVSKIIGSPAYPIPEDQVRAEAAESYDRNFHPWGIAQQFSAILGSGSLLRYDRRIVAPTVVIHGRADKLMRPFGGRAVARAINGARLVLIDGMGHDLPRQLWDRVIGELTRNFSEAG", "assay": "Competitive binding affinity to Mycobacterium tuberculosis H37Rv ATCC 25618 lipase-G at 60 uM preincubated for 60 mins followed by La-1 probe addition measured after 30 mins by ABPP method"}, "[8]": {"target": "T4, Carboxylic ester hydrolase LipN (Mycobacterium tuberculosis (strain ATCC 25618 / H37Rv)) (UniProt P95125)", "T4 sequence (whole entry)": "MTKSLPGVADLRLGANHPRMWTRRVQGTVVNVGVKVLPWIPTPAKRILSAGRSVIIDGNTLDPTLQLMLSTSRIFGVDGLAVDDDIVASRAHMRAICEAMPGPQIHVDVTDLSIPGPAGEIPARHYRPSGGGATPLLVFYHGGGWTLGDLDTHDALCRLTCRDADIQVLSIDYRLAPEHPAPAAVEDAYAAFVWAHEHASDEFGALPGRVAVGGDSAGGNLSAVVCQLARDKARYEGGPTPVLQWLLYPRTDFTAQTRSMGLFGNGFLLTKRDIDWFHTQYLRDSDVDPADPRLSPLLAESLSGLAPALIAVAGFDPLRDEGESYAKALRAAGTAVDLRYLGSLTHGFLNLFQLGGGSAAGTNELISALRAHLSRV", "assay": "Competitive binding affinity to Mycobacterium tuberculosis H37Rv ATCC 25618 lipaseN at 60 uM preincubated for 60 mins followed by La-1 probe addition measured after 30 mins by ABPP method"}, "[9]": {"target": "T5, Probable carboxylic ester hydrolase LipM (Mycobacterium tuberculosis (strain ATCC 25618 / H37Rv)) (UniProt Q50681)", "T5 sequence (whole entry)": "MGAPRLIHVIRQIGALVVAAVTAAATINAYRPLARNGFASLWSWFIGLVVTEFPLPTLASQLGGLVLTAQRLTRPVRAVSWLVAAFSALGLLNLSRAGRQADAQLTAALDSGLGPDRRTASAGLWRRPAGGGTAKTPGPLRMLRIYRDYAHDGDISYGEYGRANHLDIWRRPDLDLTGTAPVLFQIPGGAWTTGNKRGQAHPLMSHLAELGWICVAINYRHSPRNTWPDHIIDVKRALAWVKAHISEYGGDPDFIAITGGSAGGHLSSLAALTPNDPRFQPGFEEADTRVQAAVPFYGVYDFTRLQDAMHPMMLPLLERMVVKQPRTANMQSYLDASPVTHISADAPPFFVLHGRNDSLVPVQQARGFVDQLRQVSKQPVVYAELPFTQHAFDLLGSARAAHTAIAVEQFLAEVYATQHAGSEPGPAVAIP", "assay": "Competitive binding affinity to Mycobacterium tuberculosis H37Rv ATCC 25618 lipase-M at 60 uM preincubated for 60 mins followed by La-1 probe addition measured after 30 mins by ABPP method"}, "[10]": {"system": "Mycobacterium tuberculosis H37Rv", "assay": "Inhibition of lipase in Mycobacterium tuberculosis H37Rv expressing GFP assessed as cell growth inhibition at 4 uM by fluorescence assay"}, "[11]": {"target": "T6, Esterase LipI (Mycobacterium tuberculosis (strain ATCC 25618 / H37Rv)) (UniProt P71668)", "T6 sequence (whole entry)": "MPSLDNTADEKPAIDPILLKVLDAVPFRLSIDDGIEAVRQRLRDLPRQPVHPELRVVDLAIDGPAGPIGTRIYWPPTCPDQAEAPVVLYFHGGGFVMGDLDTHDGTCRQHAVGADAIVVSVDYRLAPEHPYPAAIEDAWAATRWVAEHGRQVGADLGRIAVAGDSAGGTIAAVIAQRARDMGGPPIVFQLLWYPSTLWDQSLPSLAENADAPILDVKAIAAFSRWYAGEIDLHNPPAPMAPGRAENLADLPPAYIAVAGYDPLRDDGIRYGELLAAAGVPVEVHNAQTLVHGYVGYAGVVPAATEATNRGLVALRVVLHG", "assay": "Competitive binding affinity to Mycobacterium tuberculosis H37Rv ATCC 25618 lipase-I at 60 uM preincubated for 60 mins followed by La-1 probe addition measured after 30 mins by ABPP method"}, "[12]": {"system": "Mycobacterium tuberculosis H37Rv", "assay": "Ratio of MIC for inhibition of lipase in Mycobacterium tuberculosis H37Rv assessed as cell growth inhibition in absence of vancomycin to MIC for inhibition of lipase in Mycobacterium tuberculosis H37Rv assessed as cell growth inhibition in presence of vancomycin"}, "[13]": {"target": "T1, Putative acetyl-hydrolase LipR (Mycobacterium tuberculosis (strain ATCC 25618 / H37Rv))", "assay": "Competitive binding affinity to Mycobacterium tuberculosis H37Rv ATCC 25618 lipaseR at 60 uM preincubated for 60 mins followed by La-1 probe addition measured after 30 mins by ABPP method"}, "[14]": {"system": "Mycobacterium tuberculosis H37Rv", "assay": "Inhibition of lipase in Mycobacterium tuberculosis H37Rv infected in human monocyte derived macrophages assessed as inhibition of bacterial growth treated for 7 days starting from 4 day post infection relative to control"}, "[15]": {"target": "T7, Probable esterase LipO (Mycobacterium tuberculosis (strain ATCC 25618 / H37Rv)) (UniProt O06832)", "T7 sequence (whole entry)": "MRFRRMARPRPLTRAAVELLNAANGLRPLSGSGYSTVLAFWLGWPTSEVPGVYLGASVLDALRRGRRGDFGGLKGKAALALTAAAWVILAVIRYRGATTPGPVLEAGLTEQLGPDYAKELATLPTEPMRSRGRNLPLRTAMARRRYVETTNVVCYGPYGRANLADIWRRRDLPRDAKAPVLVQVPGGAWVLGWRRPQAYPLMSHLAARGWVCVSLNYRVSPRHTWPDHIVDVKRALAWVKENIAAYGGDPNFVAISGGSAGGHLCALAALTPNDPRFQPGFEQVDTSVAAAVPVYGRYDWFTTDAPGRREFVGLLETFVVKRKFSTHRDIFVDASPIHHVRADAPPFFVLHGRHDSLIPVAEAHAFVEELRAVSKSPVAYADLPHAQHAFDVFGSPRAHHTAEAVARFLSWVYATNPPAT", "assay": "Competitive binding affinity to Mycobacterium tuberculosis H37Rv ATCC 25618 lipase-O at 60 uM preincubated for 60 mins followed by La-1 probe addition measured after 30 mins by ABPP method"}}, "note": "Activity calls are given as the source filed them. The calls are words filed in the database; no cut-off is given here.", "data": [{"molecule": "C#CC1CCN(C(=O)Oc2nsnc2N2CCCCC2)CC1", "values": [{"measurement": "Activity", "setting": "[1]", "result": "Active"}, {"measurement": "growth inhibition (GI)", "setting": "[2]", "result": "Active"}]}, {"molecule": "CO[C@H]1/C=C/O[C@@]2(C)Oc3c(C)c(O)c4c(O)c(c(/C=N/N5CCN(C)CC5)c(O)c4c3C2=O)NC(=O)/C(C)=C\\C=C\\[C@H](C)[C@H](O)[C@@H](C)[C@@H](O)[C@@H](C)[C@H](OC(C)=O)[C@@H]1C", "note": "[RIFAMPIN]", "values": [{"measurement": "MIC", "setting": "[3]", "result": "0.04 to 1", "unit": "µM"}]}, {"molecule": "CN[C@H](CC(C)C)C(=O)N[C@H]1C(=O)N[C@@H](CC(N)=O)C(=O)N[C@H]2C(=O)N[C@H]3C(=O)N[C@H](C(=O)N[C@H](C(=O)O)c4cc(O)cc(O)c4-c4cc3ccc4O)[C@H](O)c3ccc(c(Cl)c3)Oc3cc2cc(c3O[C@@H]2O[C@H](CO)[C@@H](O)[C@H](O)[C@H]2O[C@H]2C[C@](C)(N)[C@H](O)[C@H](C)O2)Oc2ccc(cc2Cl)[C@H]1O", "values": [{"measurement": "Ratio", "setting": "[4]", "result": 16}]}, {"molecule": "CCCCCCCCCCC[C@@H](C[C@@H]1OC(=O)[C@H]1CCCCCC)OC(=O)[C@H](CC(C)C)NC=O", "note": "[ORLISTAT]", "values": [{"measurement": "MIC", "setting": "[5]", "result": 30, "unit": "µM"}]}, {"molecule": "NNC(=O)c1ccncc1", "note": "[ISONIAZID]", "values": [{"measurement": "MIC", "setting": "[3]", "result": "0.04 to 1", "unit": "µM"}]}, {"molecule": "O=C(Oc1nsnc1N1CCCCC1)N1CCCCC1", "values": [{"measurement": "Activity", "setting": "[6]", "result": "Active"}, {"measurement": "Activity", "setting": "[7]", "result": "Active"}, {"measurement": "Activity", "setting": "[8]", "result": "Active"}, {"measurement": "Activity", "setting": "[9]", "result": "Active"}, {"measurement": "growth inhibition (GI)", "setting": "[10]", "result": "Active"}, {"measurement": "Activity", "setting": "[11]", "result": "Active"}, {"measurement": "Ratio", "setting": "[12]", "result": 4}, {"measurement": "MIC", "setting": "[2]", "result": "25 to 50", "unit": "µM"}, {"measurement": "Activity", "setting": "[13]", "result": "Active"}, {"measurement": "growth inhibition (GI)", "setting": "[14]", "result": 55, "unit": "%"}, {"measurement": "Activity", "setting": "[15]", "result": "Active"}]}]}
